The values that follow come from US10155802B2, “Locally-active anticoagulants and anti-inflammatory agents” (priority 2011, dated 2018).

Where two headings read alike, the source gives them in different places. No end group written: not given here.

The test system of series [1] is pooled human plasma. Kind of series: Prothrombin time (PT, thromboplastin) clotting assay. It counts as biochemical. The method, then: (§1) Prothrombin (clotting) time (PT) or activated partial thromboplastin (clotting) time (APTT) assays were carried out at certain concentrations of the thrombin inhibitors of the present invention using pooled human plasma with addition of thromboplastin or activated partial thromboplastin to initiate clotting. The assays employed kits from Biopool International (Ventura, Calif., USA) or from Pacific Haemostasis (Middletown, Va., USA) using the procedures supplied by the manufacturer. Briefly, the stock solution of an inhibitor (with the concentration determined using UV-based OD determination, see Gill 1989) is diluted in a buffer of 20 mM HEPES and 150 mM NaCl at pH 7.4 (HBS) to a final volume of 50 μL, to which is added the reconstituted normal plasma (Product #CMS-176172 from Fisher Scientific) in an equal volume. This solution mixture is equilibrated at 37° C. for 2 minutes before 50 μL of the APTT-10XL solution (CMS-022927) is introduced forcibly to ensure proper mixing. This new mixture was incubated at 37° C. for another 5 minutes, which is followed by the addition of 50 μL of 0.02 M […] (Fisher Scientific CMS-022925) pre-warmed at 37° C. For the prothrombin time (PT) assay, an inhibitor is diluted in HBS to a final volume of 25 μL, to which is added the reconstituted control plasma (Fisher Scientific CMS-176172) in an equal volume. This solution mixture is equilibrated at 37° C. for 5 minutes before addition of 100 μL of the thromboplastin solution (CMS-176099) pre-warmed at 37° C. For APTT assays, inhibitory activities of the peptides are expressed as concentrations needed to achieve 50% of the maximum delay in clotting time (MCT50) as compared to the absence of thrombin inhibitors (Maraganore 1989). For PT assays, inhibitory activities are measured as the concentrations of the peptides that prolong the clotting time by 50% (IC50) of that of the normal control plasma (Maraganore 1990). PT and APTT assays were also carried out using slightly modified experimental procedures. Thus, 50 μL of a control plasma (Pacific Hemostasis) solution was added to 100 μL HBS (20 mM HEPES and 150 mM NaCl at pH 7.4) containing varied concentrations of the peptides of this invention. After incubation at 37° C. for 5 min, the mixture was added to 50 μL of the thromboplastin or activated partial thromboplastin reagent. Clotting of the plasma was monitored by change in absorbance at 420 nm using a SpectraMax™ plate reader.

Series [2] relates to FeCl3-induced venous thrombosis (vena cava). Description: FeCl3-induced venous model of thrombosis in rats (thrombus weight). The settings on record: rat, single-bolus injection via tail vein. Format: in vivo. The method, then:
Male Sprague-Dawley rats (250-310 g; Charles River Laboratories, St-Constant, QC, Canada) were acclimated for at least 3 days prior to the start of the study. Animals were housed in microisolator cages and were kept on a 12-hr light/dark cycle with constant temperature and humidity. Food and water were provided ad libitum. Various anti-thrombotic agents and peptides of this invention were dissolved in saline (0.9% sodium chloride) prior to use.
The FeCl3-induced venous model of thrombosis in rats was generated as described by Wang and Xu (Wang 2005) with some modifications (Couture 2011). Briefly, rats were anesthetized with a 2.5% isoflurane/oxygen mixture and placed on a heat source (35-37° C.). The vena cava was then exposed via a midline incision and the region between the renal and iliolumbar veins was isolated. […]
Protein content of the thrombus was also measured according to protocol by Wang (Wang 2005). […] Contents of amino acids and small peptides were measured at OD280 with digestion buffer used as a blank.
Statistical analysis was conducted using GraphPad™ Prism (GraphPad Software Inc., San Diego Calif., USA). Data were analyzed using one-way ANOVA with post-hoc Bonferroni correction for multiple comparisons. The relationship between thrombus weight and thrombus volume was determined by linear regression. […]

In series [3] the target is thrombin (Homo sapiens, UniProt P00734). Kind of series: Fibrinogen clotting assay (concentration needed to double the clotting time = IC50). The settings on record: IC50 (anti-clotting), T = 37° C. Format: biochemical. The method, then:
The same enzyme kinetic assays were used to determine the inhibitory activities of MH2 and two MH2-derived peptides, MH2-allGS and MH2-GS (Table 4). Clotting assays were carried out to determine the inhibitory activities of the rest of the MH2 peptides by use of the protocols described previously (DiMaio 1990; Taka 2000; Su 2004). The assay employs bovine plasma fibrinogen dissolved at 0.1% in 50 mM Tris-Cl, 100 mM NaCl, 0.1% PEG-8000 at pH 7.6 (i.e. the clotting buffer). In addition to the use of optical densities or ODs (Gill 1989), concentrations of the peptide stock solutions were ranked (and corrected when necessary) by use of quantitative proton NMR spectroscopy (Cavaluzzi 2002). Each assay mixture contained a certain concentration of the peptide, and the reaction was started by the addition of human thrombin to a final concentration of approximately 0.5 nM. Optical absorbance of the assay mixtures was measured at 420 nm using the Spectramax™ plate reader. The onset clotting time was determined as an intersection of the baseline and the tangent line at point of inflection of the clotting curve. The concentration of an MH2 peptide needed to double the clotting time was defined as IC50 (DiMaio 1990) as illustrated in FIG. 4 and summarized in Table 4. The correlation between IC50 values and linker unfolding is similar to that for the BTI series of inhibitors (Table 3). […] (Table 3).

Series [4] deals with fresh blood withdrawn from rats with venous thrombosis. Description: Clotting time (aPTT) of fresh blood withdrawn from treated rats. The settings on record: rat, 0.2 mg/kg bolus + 0.00433 mg/kg/min infusion; 20 minutes after administration versus before. Format: in vivo. The method, then: FIG. 23 illustrates the clotting times (aPTT) determined for fresh blood withdrawn from rats with venous thrombosis at three time points, the first before drug administration and vessel injury, the second at 20 minutes after FeCl3 application and the third 60 minutes following injection of the respective thrombin inhibitors. Clotting times (aPTT) are shown for different rats administered with each thrombin inhibitor, ZIP4 for MH2-wZIP4, ZIP5 for MH2-wZIP5 and T218 for BRI-T218. Dosage levels for every compound were 0.2 mg/kg for the single-bolus injection and 0.00433 mg/kg/min for the maintenance infusion,
Terminal blood samples were analyzed for aPTT within 15 to 30 minutes of collection using a Coag DX Analyzer with aPTT citrate cartridges (IDEXX Laboratories, Westbrook, Me., USA).

The test system of series [5] is pooled human plasma. Kind of series: Activated partial thromboplastin time (APTT) clotting assay. It counts as biochemical. Conditions: 37° C.; concentration for 50% of maximum delay in clotting time; read-out: MTC50 (APTT). How it is done:
as §1

For series [6] the following is noted: estimated (Cochran 2001), cited from earlier work.
Series [7] deals with T1, rat-tail collagen type I (Rattus norvegicus, UniProt P02454+P02466).
T1 construct: purchased BD Bioscience; host or cells: rat tail (tissue-derived)
T1 sequence (P02454 152-1207): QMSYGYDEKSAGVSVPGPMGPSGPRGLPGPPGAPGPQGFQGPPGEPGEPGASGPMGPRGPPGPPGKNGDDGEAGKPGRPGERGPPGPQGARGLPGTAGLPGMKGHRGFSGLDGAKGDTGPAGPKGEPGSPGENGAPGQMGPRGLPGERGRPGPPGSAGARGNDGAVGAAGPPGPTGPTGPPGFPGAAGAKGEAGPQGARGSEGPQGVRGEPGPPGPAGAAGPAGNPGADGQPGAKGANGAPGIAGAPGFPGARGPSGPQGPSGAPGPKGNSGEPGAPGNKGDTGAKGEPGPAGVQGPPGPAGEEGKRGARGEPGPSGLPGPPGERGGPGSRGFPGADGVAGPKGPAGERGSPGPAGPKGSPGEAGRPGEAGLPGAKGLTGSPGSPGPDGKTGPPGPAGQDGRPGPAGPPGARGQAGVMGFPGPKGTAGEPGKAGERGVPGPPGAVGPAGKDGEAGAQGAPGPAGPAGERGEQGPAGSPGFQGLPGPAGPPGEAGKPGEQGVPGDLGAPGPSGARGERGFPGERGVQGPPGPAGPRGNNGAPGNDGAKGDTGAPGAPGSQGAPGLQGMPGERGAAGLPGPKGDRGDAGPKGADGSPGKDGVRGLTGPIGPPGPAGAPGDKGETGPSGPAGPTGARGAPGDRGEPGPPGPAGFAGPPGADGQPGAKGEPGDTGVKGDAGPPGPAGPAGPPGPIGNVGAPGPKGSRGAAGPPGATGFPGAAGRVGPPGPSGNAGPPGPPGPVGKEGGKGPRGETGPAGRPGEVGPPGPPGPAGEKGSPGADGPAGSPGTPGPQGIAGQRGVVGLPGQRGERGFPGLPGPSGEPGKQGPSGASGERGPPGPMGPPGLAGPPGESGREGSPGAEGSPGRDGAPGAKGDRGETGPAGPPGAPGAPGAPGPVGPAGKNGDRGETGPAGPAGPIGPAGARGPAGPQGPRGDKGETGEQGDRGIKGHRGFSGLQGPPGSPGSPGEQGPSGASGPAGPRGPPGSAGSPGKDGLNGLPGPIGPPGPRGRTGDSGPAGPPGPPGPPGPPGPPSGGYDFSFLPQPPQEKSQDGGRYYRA
T1 sequence (P02466 86-1125): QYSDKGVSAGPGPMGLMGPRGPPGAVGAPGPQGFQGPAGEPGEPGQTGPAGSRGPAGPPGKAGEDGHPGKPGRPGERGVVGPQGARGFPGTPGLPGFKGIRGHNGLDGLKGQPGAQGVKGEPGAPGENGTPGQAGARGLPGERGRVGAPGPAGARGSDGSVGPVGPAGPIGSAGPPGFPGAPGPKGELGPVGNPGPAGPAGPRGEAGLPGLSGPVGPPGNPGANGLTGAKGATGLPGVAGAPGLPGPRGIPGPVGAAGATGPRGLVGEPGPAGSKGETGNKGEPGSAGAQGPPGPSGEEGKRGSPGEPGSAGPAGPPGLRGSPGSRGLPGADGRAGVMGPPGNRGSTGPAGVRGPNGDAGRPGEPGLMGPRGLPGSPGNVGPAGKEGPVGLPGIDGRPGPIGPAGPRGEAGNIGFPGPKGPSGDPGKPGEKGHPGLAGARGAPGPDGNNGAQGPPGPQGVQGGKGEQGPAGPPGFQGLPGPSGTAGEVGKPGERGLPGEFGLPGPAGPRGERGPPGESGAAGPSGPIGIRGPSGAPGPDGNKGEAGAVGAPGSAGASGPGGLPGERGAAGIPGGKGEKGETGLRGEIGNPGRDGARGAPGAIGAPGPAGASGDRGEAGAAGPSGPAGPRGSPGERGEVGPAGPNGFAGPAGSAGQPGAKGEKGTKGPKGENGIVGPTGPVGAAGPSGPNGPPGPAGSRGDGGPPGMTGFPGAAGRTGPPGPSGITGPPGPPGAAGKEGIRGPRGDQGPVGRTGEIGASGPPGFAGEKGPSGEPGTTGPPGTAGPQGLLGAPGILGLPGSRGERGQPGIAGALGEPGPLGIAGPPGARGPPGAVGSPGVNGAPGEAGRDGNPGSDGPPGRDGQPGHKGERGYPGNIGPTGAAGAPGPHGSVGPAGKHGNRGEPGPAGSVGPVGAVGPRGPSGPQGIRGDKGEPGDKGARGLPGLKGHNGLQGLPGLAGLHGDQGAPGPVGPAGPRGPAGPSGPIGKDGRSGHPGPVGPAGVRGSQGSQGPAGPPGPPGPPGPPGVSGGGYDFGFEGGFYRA
Kind of series: Peptide-collagen binding by reduction of collagen fibril alignment (deuterium coupling constant). The settings on record: collagen gelation under magnetic field in presence of peptide. The source says:
High-resolution proton NMR spectroscopy is used to illustrate the behavior of the linker peptides […] (SEQ ID NO: 2 or gb1), […] (SEQ ID NO: 3 or trpzip6), […] (SEQ ID NO: 4 or trpzip5) and […] (SEQ ID NO: 5 or trpzip4) in aqueous solutions. The peptides were synthesized using standard Fmoc chemistry and purified by reverse-phase HPLC. Their identity was confirmed by mass-spectroscopy and NMR spectroscopy. For NMR studies, a volume of (400-X) μL of a peptide dissolved in pure water was mixed with 50 μL of a 10×PBS (phosphate-buffered saline) supplemented by sodium phosphate to a final concentration of 50 mM and with 50 μL of deuterated water (D2O) to form the reference sample (where X=0) and with a certain volume (X μL) of rat-tail collagen type I (at 3.6 to 4 mg/ml in 0.02 N acetic acid from BD Bioscience), (where X is adjusted to achieve the desired final concentration of collagen), with 50 μL of the 10× modified PBS and with 50 μL of deuterated water (D2O) to form the peptide-collagen complex. The pH value of the reference peptide samples was adjusted to match the pH of the final peptide-collagen complex in order to facilitate NMR spectral comparison.
The peptide-collagen solutions were subjected to gelation under magnetic field guidance (see Example 7) followed by the measurement of fibril alignment (Ma 2008) as a semi-quantitative indication of peptide-collagen binding. […]

The IC50 is the concentration that gives 50% inhibition. With `CC[C@H](C)[C@H](N)C(=O)N[C@@H](CCCNC(=N)N)C(=O)N[C@@H](Cc1ccccc1)C(=O)N[C@H](C(=O)N[C@@H](CC(=O)O)C(=O)NCC(=O)N[C@@H](CCC(=O)O)C(=O)N[C@@H](Cc1c[nH]c2ccccc12)C(=O)N[C@H](C(=O)N[C@@H](Cc1ccc(O)cc1)C(=O)N[C@@H](CC(=O)O)C(=O)N[C@@H](CC(=O)O)C(=O)N[C@@H](C)C(=O)N[C@H](C(=O)N[C@@H](CCCCN)C(=O)N[C@H](C(=O)N[C@@H](Cc1ccccc1)C(=O)N[C@H](C(=O)N[C@@H](Cc1c[nH]c2ccccc12)C(=O)N[C@H](C(=O)N[C@@H](CCC(=O)O)C(=O)NCC(=O)N[C@@H](CC(=O)O)C(=O)N[C@@H](Cc1ccccc1)C(=O)N[C@@H](CCC(=O)O)C(=O)N[C@@H](CCC(=O)O)C(=O)N[C@H](C(=O)N1CCC[C@H]1C(=O)N[C@@H](CCC(=O)O)C(=O)N[C@@H](CCC(=O)O)C(=O)N[C@@H](Cc1ccc(O)cc1)C(=O)N[C@@H](CC(C)C)C(=O)N[C@@H](CCC(N)=O)C(=O)O)[C@@H](C)CC)[C@@H](C)O)[C@@H](C)O)[C@@H](C)O)[C@@H](C)O)[C@@H](C)O)[C@@H](C)O` [MH2-wZIP5], in series [1], the “concentrations required in PT-APTT curves relative to MH2-GS” value is listed as “about 2.5 times”. The IC50 is < 300 nM in series [1] (37° C., concentration that prolongs clotting time by 50%) and 107 nM in series [3]. Further, the “reduction of thrombus weight, venous model” value in series [2] was “comparable to MH2-wZIP4”. The “clotting time (aPTT), systemic anticoagulant effect” value in series [4] is recorded as “only a slight prolongation of the clotting time (aPTT)”. Also, in series [5], the EC50 came to 2000 nM.

As to “GEWTYDDATKTFTVTE (not fully specified (C-terminus)) [gb1]”, the “population of unfolded species, non-zero ΔCp taken into account” value in series [6] (21° C.) is recorded as 0.7; in series [6] (37° C.) it was 0.85. In addition, in series [7], the “reduction of deuterium coupling constant (degree of collagen fibril alignment)” value is “not significantly affected”.
